Laboratory results as given in ChEMBL document CHEMBL5370528, “Synthesis-accessibility-oriented design of c-Jun N-terminal kinase 1 inhibitor” (Eur J Med Chem, 2023).
Calls of active or inactive are those of the source. The calls are words filed in the database; no cut-off is given here.

What was measured:
[1] = Half-life in Sprague-Dawley rat at 75 mg/kg, po by HPLC-UV analysis; format: ADME, organism-based; details: in vivo
[2] = Apparent volume of distribution in Sprague-Dawley rat at 5 mg/kg, iv by HPLC-UV analysis; format: ADME, organism-based; details: in vivo, read-out: Vz
[3] = target: T1, Mitogen-activated protein kinase 10 (Homo sapiens, UniProt P53779); test: Inhibition of N-terminal GST-tagged recombinant full length human JNK3 expressed in baculovirus infected Sf9 cells using IPTTPITTTYFFFKKK as substrate at 0.1 uM incubated for 60 mins in the presence of ATP by ADP-Glo reagent based luminescence assay relative to control
[4] = target: T2, Mitogen-activated protein kinase 9 (Homo sapiens, UniProt P45984); test: Inhibition of N-terminal GST-tagged recombinant full length human JNK2 expressed in baculovirus infected Sf9 cells using IPTTPITTTYFFFKKK as substrate at 0.1 uM incubated for 60 mins in the presence of ATP by ADP-Glo reagent based luminescence assay relative to control
[5] = target: T3, c-Jun N-terminal kinase, JNK (Homo sapiens) (UniProt P45983+P53779+P45984); test: Inhibition of JNK in human BEAS-2B cells assessed as inhibition of anisomycin-activated c-Jun phosphorylation preincubated for 1 hrs followed by anisomycin activation for 1 hrs by Western blot analysis; format: cell-based; details: dose 2-50 µM, time 2.0 hrs
[6] = MRT (0 to infinity) in Sprague-Dawley rat at 75 mg/kg, po by HPLC-UV analysis; format: ADME, organism-based; details: in vivo
[7] = target: T2, Mitogen-activated protein kinase 9; test: Inhibition of N-terminal GST-tagged recombinant full length human JNK2 expressed in baculovirus infected Sf9 cells using IPTTPITTTYFFFKKK as substrate at 1 uM incubated for 60 mins in the presence of ATP by ADP-Glo reagent based luminescence assay relative to control
Mus musculus [8] = test: Anti-fibrotic activity in bleomycin-induced C57BL/6 mouse model of pulmonary fibrosis assessed as restoration of respiratory function at 75 mg/kg, po administered twice a day for 3 weeks by spirometry analysis; format: functional
[9] = AUC (0 to infinity) in Sprague-Dawley rat at 75 mg/kg, po by HPLC-UV analysis; format: ADME, organism-based; parameters: dose 75 mg/kg, route po; details: in vivo
[10] = Apparent volume of distribution in Sprague-Dawley rat at 75 mg/kg, po by HPLC-UV analysis; format: ADME, organism-based; details: in vivo
[11] = target: Mitogen-activated protein kinase 8 (Homo sapiens, UniProt P45983); test: Inhibition of N-terminal GST-tagged recombinant full length human JNK1 expressed in baculovirus infected Sf9 insect cells using IPTTPITTTYFFFKKK as substrate at 1 uM incubated for 60 mins in the presence of ATP by ADP-Glo reagent based luminescence assay relative to control
[12] = Clearance in Sprague-Dawley rat at 5 mg/kg, iv by HPLC-UV analysis; format: ADME, organism-based; details: in vivo
[13] = Half-life in Sprague-Dawley rat at 5 mg/kg, iv by HPLC-UV analysis; format: ADME, organism-based; details: in vivo
Mus musculus [14] = test: Anti-fibrotic activity in bleomycin-induced C57BL/6 mouse model of pulmonary fibrosis assessed as reduction in collagen accumulation at 25 to 75 mg/kg, po administered twice a day for 3 weeks by Masson's trichome staining based analysis; format: functional, organism-based; details: dose 25-75 mg/kg
Mus musculus [15] = test: Anti-fibrotic activity in bleomycin-induced C57BL/6 mouse model of pulmonary fibrosis assessed as increase in respiratory function by measuring expiratory volume at 25 to 75 mg/kg, po administered twice a day for 3 weeks by spirometry analysis; format: functional, organism-based; details: dose 25-75 mg/kg
[16] = Clearance in Sprague-Dawley rat at 75 mg/kg, po by HPLC-UV analysis; format: ADME, organism-based; details: in vivo
Mus musculus [17] = test: Anti-fibrotic activity in bleomycin-induced C57BL/6 mouse model of pulmonary fibrosis assessed as alleviation of alveolar wall thickening in lungs at 25 to 75 mg/kg, po administered twice a day for 3 weeks by H&E staining based analysis; format: functional, organism-based; details: dose 25-75 mg/kg
Mus musculus [18] = test: Anti-fibrotic activity in bleomycin-induced C57BL/6 mouse model of pulmonary fibrosis assessed as reduction in alveolar space collapse at 25 to 75 mg/kg, po administered twice a day for 3 weeks by Masson's trichome staining based analysis; format: functional, organism-based; details: dose 25-75 mg/kg
[19] = target: T1, Mitogen-activated protein kinase 10; test: Inhibition of N-terminal GST-tagged recombinant full length human JNK3 expressed in baculovirus infected Sf9 cells using IPTTPITTTYFFFKKK as substrate incubated for 60 mins in the presence of ATP by ADP-Glo reagent based luminescence assay
[20] = Cmax in Sprague-Dawley rat at 5 mg/kg, iv by HPLC-UV analysis; format: ADME, organism-based; parameters: dose 5 mg/kg, route iv; details: in vivo
[21] = target: T3, c-Jun N-terminal kinase, JNK (Homo sapiens); test: Inhibition of JNK in HFL1 cells assessed as inhibition of anisomycin-activated c-Jun phosphorylation preincubated for 1 hrs followed by anisomycin activation for 1 hrs by Western blot analysis; format: cell-based; details: dose 2-50 µM, time 2.0 hrs
[22] = target: CDK4/Cyclin D3 (Homo sapiens) (UniProt P11802+P30281); test: Inhibition of CDK4/Cyclin D3 (unknown origin) at 1 uM preincubated for 10 mins followed by substrate addition and measured after 60 mins in the presence of ATP by ADP-Glo reagent based luminescence assay; format: protein-complex assay; details: time 70.0 min
[23] = Tmax in Sprague-Dawley rat at 75 mg/kg, po by HPLC-UV analysis; format: ADME, organism-based; details: in vivo
[24] = target: Mitogen-activated protein kinase 7 (Homo sapiens) (UniProt Q13164); test: Inhibition of ERK5 (unknown origin) at 1 uM preincubated for 10 mins followed by substrate addition and measured after 60 mins in the presence of ATP by ADP-Glo reagent based luminescence assay relative to control; details: time 70.0 min
Mus musculus [25] = test: Anti-fibrotic activity in bleomycin-induced C57BL/6 mouse model of pulmonary fibrosis assessed as alleviation of alveolar collapse in lungs at 25 to 75 mg/kg, po administered twice a day for 3 weeks by H&E staining based analysis; format: functional, organism-based; details: dose 25-75 mg/kg
Mus musculus [26] = test: Anti-fibrotic activity in bleomycin-induced C57BL/6 mouse model of pulmonary fibrosis assessed as reduction in mortality rate at 25 mg/kg, po administered twice a day for 3 weeks (reference value: 43%); format: functional; parameters: scale not given: the % may be the effect or the level left
[27] = Oral bioavailability in Sprague-Dawley rat at 75 mg/kg by HPLC-UV analysis; format: ADME, organism-based; details: in vivo
[28] = target: Mitogen-activated protein kinase 11 (Homo sapiens) (UniProt Q15759); test: Inhibition of p38beta (unknown origin) at 1 uM preincubated for 10 mins followed by substrate addition and measured after 60 mins in the presence of ATP by ADP-Glo reagent based luminescence assay relative to control; details: time 70.0 min
Homo sapiens = species on record: Homo sapiens; test: Selectivity ratio of IC50 for inhibition of N-terminal GST-tagged recombinant full length human JNK2 expressed in baculovirus infected Sf9 cells to IC50 for inhibition of N-terminal GST-tagged recombinant full length human JNK1 expressed in baculovirus infected Sf9 insect cells
Mus musculus [29] = test: Anti-fibrotic activity in bleomycin-induced C57BL/6 mouse model of pulmonary fibrosis assessed as increase in respiratory function by measuring minute volume at 25 to 75 mg/kg, po administered twice a day for 3 weeks by spirometry analysis; format: functional, organism-based; details: dose 25-75 mg/kg

T2 sequence (P45984 whole entry, looked up): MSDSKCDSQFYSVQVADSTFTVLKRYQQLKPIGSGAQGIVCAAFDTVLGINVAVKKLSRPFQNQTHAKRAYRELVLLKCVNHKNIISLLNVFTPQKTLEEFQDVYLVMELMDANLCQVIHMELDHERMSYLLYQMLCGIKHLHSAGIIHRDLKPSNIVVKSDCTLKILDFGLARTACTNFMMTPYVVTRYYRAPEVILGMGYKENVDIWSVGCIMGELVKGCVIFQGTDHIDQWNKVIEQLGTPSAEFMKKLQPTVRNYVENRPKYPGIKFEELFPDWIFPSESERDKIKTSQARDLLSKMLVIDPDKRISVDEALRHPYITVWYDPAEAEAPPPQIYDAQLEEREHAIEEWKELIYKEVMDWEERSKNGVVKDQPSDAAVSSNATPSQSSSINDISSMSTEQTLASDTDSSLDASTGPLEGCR
T1 sequence (P53779 whole entry): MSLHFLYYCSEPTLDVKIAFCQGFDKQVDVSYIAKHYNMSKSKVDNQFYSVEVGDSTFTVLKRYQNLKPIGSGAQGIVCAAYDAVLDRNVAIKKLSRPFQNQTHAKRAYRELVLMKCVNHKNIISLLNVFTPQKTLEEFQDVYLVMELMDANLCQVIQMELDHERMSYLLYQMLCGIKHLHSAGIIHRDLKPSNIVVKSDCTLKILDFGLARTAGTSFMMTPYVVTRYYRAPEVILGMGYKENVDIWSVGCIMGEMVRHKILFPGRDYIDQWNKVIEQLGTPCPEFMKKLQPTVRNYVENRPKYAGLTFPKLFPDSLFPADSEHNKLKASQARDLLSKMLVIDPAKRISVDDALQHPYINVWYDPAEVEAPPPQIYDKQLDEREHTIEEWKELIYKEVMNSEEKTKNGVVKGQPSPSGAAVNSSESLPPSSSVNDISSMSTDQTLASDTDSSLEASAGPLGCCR
Chain of Mitogen-activated protein kinase 7 (Homo sapiens) (Q13164 2-816 limits assumed): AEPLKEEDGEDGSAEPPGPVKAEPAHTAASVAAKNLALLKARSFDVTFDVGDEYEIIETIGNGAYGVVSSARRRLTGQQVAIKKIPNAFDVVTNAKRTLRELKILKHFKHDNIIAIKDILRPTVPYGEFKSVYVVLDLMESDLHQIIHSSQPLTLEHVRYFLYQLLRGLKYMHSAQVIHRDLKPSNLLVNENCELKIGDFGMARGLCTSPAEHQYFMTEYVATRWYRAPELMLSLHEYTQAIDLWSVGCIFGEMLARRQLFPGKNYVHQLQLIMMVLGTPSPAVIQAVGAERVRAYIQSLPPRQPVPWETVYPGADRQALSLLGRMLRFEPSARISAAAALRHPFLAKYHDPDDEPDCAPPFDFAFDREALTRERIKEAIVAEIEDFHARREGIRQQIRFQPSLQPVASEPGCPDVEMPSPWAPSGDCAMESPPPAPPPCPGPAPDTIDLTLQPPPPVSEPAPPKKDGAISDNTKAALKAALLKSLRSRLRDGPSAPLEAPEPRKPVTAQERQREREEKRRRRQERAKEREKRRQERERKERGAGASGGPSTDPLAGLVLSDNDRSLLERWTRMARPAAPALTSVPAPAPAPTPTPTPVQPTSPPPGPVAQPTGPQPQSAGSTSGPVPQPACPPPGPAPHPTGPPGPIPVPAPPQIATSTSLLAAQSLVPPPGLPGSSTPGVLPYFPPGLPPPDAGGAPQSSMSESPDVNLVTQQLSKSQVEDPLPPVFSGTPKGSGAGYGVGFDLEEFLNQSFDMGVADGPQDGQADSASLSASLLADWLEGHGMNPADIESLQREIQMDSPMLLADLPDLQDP
Chain of Mitogen-activated protein kinase 8 (P45983 whole entry): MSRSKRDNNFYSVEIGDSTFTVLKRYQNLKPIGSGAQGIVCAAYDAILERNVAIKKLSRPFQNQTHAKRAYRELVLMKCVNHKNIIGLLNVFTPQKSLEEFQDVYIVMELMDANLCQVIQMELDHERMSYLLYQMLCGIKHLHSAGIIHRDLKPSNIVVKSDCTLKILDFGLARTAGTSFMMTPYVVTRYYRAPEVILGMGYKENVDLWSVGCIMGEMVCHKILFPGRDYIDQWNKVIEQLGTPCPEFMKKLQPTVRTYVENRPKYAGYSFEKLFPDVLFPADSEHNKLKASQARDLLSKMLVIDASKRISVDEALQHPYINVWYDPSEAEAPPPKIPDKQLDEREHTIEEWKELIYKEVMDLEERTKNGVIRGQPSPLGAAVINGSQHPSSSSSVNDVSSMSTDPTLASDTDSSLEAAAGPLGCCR
Chain of Mitogen-activated protein kinase 11 (Homo sapiens) (Q15759 whole entry): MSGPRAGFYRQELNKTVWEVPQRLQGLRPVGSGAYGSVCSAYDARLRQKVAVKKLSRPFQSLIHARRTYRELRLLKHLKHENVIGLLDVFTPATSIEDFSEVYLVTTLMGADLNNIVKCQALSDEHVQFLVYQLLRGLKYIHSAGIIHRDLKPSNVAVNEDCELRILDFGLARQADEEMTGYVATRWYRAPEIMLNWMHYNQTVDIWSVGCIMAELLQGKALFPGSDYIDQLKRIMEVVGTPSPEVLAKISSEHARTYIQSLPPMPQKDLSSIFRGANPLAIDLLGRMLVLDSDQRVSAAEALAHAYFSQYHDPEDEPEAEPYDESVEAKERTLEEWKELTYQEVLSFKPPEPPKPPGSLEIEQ

CC(C)(C)CNc1ncc(Br)c(Nc2ccccc2C(N)=O)n1
half-life [1]: 4.22 h | Vd [2]: 20.3 L/kg | inhibition [3]: 78.5% | inhibition [4]: 43% | inhibition [5]: Dose-Dependent Effect | MRT inf [6]: 5.45 h | inhibition [7]: 101% | Activity (Mus musculus [8]): ~100% | AUC(0-inf) [9]: 1700 ng·h/mL | Vz [10]: 230.54 L/kg | inhibition [11]: 99% | clearance [12]: 131 mL/min/kg | half-life [13]: 2.09 h | Activity (Mus musculus [14]): Active | Activity (Mus musculus [15]): Active | CL/F [16]: 860 mL/min/kg | Activity (Mus musculus [17]): Active | Activity (Mus musculus [18]): Active | IC50 [19]: 33.2 nM | Cmax [20]: 453 ng/mL | inhibition [21]: Dose-Dependent Effect | inhibition [22]: 41.9% | Tmax [23]: 1.38 h | inhibition [24]: 13.5% | Activity (Mus musculus [25]): Active | Activity (Mus musculus [26]): 14% | bioavailability [27]: 15.3% | inhibition [28]: 9.6% | Ratio IC50 (Homo sapiens): 3.36 | Activity (Mus musculus [29]): Active
